{"source": "patent EP3895685A1", "about": "“NATURAL COMPOSITION FOR HAIR GROWTH STIMULATION AND HAIR LOSS PREVENTION AND TREATMENT WITHOUT PRESERVATIVES” (Fraunhofer-Gesellschaft zur Förderung der angewandten …, priority 2020, dated 2021)", "key": {"[1]": {"system": "HFDPC", "experiment": "Assessment of cell morphology by phase contrast microscopy", "format": "cell-based, human", "details": "for cell adherence and proliferation (summary): confluence and cell shape after 3 weeks, diosgenin concentration-dependent", "procedure": "(§1) First, Human Follicle Dermal Papilla Cells (HFDPC) cells were thawed and seeded into collagen-coated cell culture flasks (T25). Then the medium was changed every 48 h. After 4 days the cells were trypsinized and seeded in T75 cell culture flask. In preparation for the final experiment, the cells were trypsinized and then counted with a cell counter. The cell concentration was then adjusted in a defined amount of medium followed by seeding of the cells in 96-well plates for the subsequent cell impedance measurements (5000 cells per well) or in 24-well plates (20000 cells per well). Subsequently, the cells were cultivated for 7 days in pure culture medium with regular medium changes after 2-3 days. After 7 days, the medium with the additives listed in Table 1 was added (designated as day 0), followed by a 3-week cultivation of the cells. The medium (and addition of fresh active substances) was changed every 2-3 days. […] The following examinations were carried out after 7, 14 and 21 days. Cells in pure culture medium (C+M) were used as controls (untreated). All cell culture substrates were coated with collagen prior to cell seeding. The tests with HFDPC were run without the use of preservatives.\nCell morphology was assessed through microscopic examination of the cells with an inverted microscope (phase contrast microscopy) at 10x and 20x primary magnification. The morphology of the cells provides information on the adherence behaviour of the cells,possible cell activation and cell stress. This examination was carried out on a 24-well scale."}, "[2]": {"system": "VEGF", "experiment": "VEGF-ELISA in cell culture supernatant", "format": "cell-based, human", "text": "If the cell membrane is damaged, the lactadehydrogenase (LDH) present inside the cell is released into the cell culture supernatant. The resulting NADH/H+ reduces the tetrazolium salt present in the reaction mixture to formazan. This becomes visible by a colour change, which can be detected at an absorption of 450 nm (y-axis: OD 450 nm) in the microplate reader. The higher the intensity of the colour change, the greater the degree of membrane damage. A low OD 450 nm value is desired. Four diagrams are presented: The LDH level after one week (LDH 1st Week of Trial), two weeks (LDH 2nd Week of Trial) and three weeks (LDH 3rd Week of Trial) after the HFDPC cells were exposed to the control conditions or to the actives substances. The control conditions are HFDPC with medium (blue, C+M). Active substances are arachidonate with low concentration (purple, Ara 1.c), arachidonate with high concentration (orange, Ara 2.c), diosgenin with low concentration (black, Dios 1.c), diosgenin with high concentration (brown, […]), ricinoleic acid with low concentration (dark blue, Rici 1.c), ricinoleic acid with high concentration (dark violet, Rici 2.c), inventive example with low concentration (red, IE 1.c) inventive example with high concentration (green, IE 2.c). The fourth diagram presents a background control, in which the LDH level was measured by OD 450 nm values (y-axis) from the cell culture supernatant for the medium (blue, M) as a control test and for the medium with the active substance in high concentrations (green, M+Ara 2.c; purple, M+Dios 2.c; orange, M+Rici 2.c; black, M+IE 2.c) after one, two and three weeks (x-axis). • FIG 2: Phase contrast images of untreated HFDPC (HFDPC in medium) 1 week after cell cultivation a) 10x magnification, b) 20x magnification • FIG 3: Phase contrast images of treated HFDPC in 20x magnification, one week after addition of the active ingredient a) Ara 1.c, b) Ara 2.c, c) Rici 1.c, d) Rici 2.c, e) Dios 1.c, f) Dios 2.c, g) IE 1.c, h) IE 2.c • FIG 4: Phase contrast images of untreated and treated HFDPC in 20x magnification, two weeks after addition of the active ingredient a) Medium b) Ara 1.c, c) Ara 2.c, d) Rici 1.c, e) Rici 3.c, f) Dios 1.c, g) Dios 2.c, h) IE 1.c, i) IE 2.c • FIG 5: Phase contrast images of untreated and treated HFDPC in 20x magnification, three weeks after addition of the active ingredient a) Medium b) Ara 1.c, c) Ara 2.c, d) Rici 1.c, e) Rici 3.c, f) Dios 1.c, g) Dios 2.c, h) IE 1.c, i) IE 2.c • FIG 6: Alkaline Phosphatase Alkaline phosphatase (AP) is an enzyme that catalyses the hydrolysis of a large number of phosphate esters. The enzyme is formed by the HFDPCs during the hair cycle. Thus, the detection of AP is the proof of hair growth. […]"}, "[3]": {"system": "HFDPC", "experiment": "Cell count after trypsination", "format": "cell-based, human", "details": "for influence on the cell count (summary): over 3 weeks", "procedure": "as §1\nThis investigation was performed on a 24-well scale.\nTo perform this investigation 5000 cells per well were seeded in the 96-wells with the addition of a maximum of 200 µl medium. The cells were grown for 7 days in pure cell culture medium. The medium was changed every 2-3 days, whereby 100 µl of old medium was removed and replaced by 100 µl of new medium. After 7 days the \"pure\" cell culture medium was completely removed and medium with the respective additives was added. The cells were then cultivated for 3 weeks with regular replacement of the medium with the respective additives. Cell counting after trypsinizing: The exact cell count of HFDPC was determined after trypsination of the cells in the respective well and uptake of the resulting cell pellets in medium. All pellets of one sample were combined in a cell culture vessel and then counted with a cell counter."}, "[4]": {"system": "HFDPC", "experiment": "Immunofluorescent staining of vimentin", "format": "cell-based, human", "details": "2. Concentration (2c)"}, "[5]": {"system": "HFDPC", "experiment": "Cell impedance test (xCELLigence, cell index) on proliferation and toxicity", "format": "cell-based"}, "[6]": {"details": "1 week after addition, versus untreated cells"}, "[7]": {"details": "2 weeks after addition, versus untreated cells"}, "[8]": {"details": "1. Concentration (1c), after 3 weeks"}, "[9]": {"details": "depending on concentration and time, compared to untreated cells"}, "[10]": {"details": "250 µg/mL in medium, first 24 hours after addition"}}}
{"compound": "C[C@@H]1CC[C@@]2(OC1)O[C@H]1C[C@H]3[C@@H]4CC=C5C[C@@H](O)CC[C@]5(C)[C@H]4CC[C@]3(C)[C@H]1[C@@H]2C", "note": "[Dios, Diosgenin]", "values": [{"measurement": "cell morphology / confluence", "setting": "[1]; [6]", "result": "greater confluence"}, {"measurement": "cell morphology / confluence", "setting": "[1]; [7]", "result": "very high confluence in the well and elongated, typical growth"}, {"measurement": "cell morphology / confluence", "setting": "[1]; 3 weeks after addition, lower concentration", "result": "resembled untreated cells"}, {"measurement": "cell adherence and proliferation (summary)", "setting": "[1]", "result": "very beneficial"}, {"measurement": "VEGF release", "setting": "[2]; 1. Concentration (1c), after 1 week", "result": "lower VEGF release"}, {"measurement": "VEGF release", "setting": "[2]; [8]", "result": "lower VEGF release"}, {"measurement": "number of HDFPC", "setting": "[3]; 1c, over time", "result": "remained constant after addition of Diosgenin 1c, but was increased compared to untreated cells"}, {"measurement": "cell number", "setting": "[3]; 2c, over time, compared to untreated and Diosgenin 1c treated cells", "result": "significant increase in cell number"}, {"measurement": "cell count", "setting": "[3]; [9]", "result": "positive influence on the cell number"}, {"measurement": "influence on the cell count (summary)", "setting": "[3]", "result": "positive influence on the cell count"}, {"measurement": "cell spreading and attachment to the cell culture substrate", "setting": "[4]", "result": "able to clearly spread and attach to the cell culture substrate"}, {"measurement": "toxicity in the cellular impedance test", "setting": "[5]; measured maximum concentration of 500 µg/mL", "result": "not toxic"}]}
{"compound": "CCCCC/C=C\\C/C=C\\C/C=C\\C/C=C\\CCCC(=O)[O-].[Na+]", "note": "[Ara, Sodium Arachidonate]", "values": [{"measurement": "cell density", "setting": "[1]; 2 weeks after addition, higher concentration", "result": "higher cell density"}, {"measurement": "cell morphology / confluence", "setting": "[1]; [7]", "result": "almost the same morphology"}, {"measurement": "VEGF release", "setting": "[2]; [8]", "result": "lower VEGF release"}, {"measurement": "cell count", "setting": "[3]; after 3 weeks, higher concentration, compared to untreated cells", "result": "increase in HFDPC"}, {"measurement": "cell count", "setting": "[3]; entire duration of the experiment, independent of time and concentration", "result": "did not negatively affect the cell count"}, {"measurement": "cell count", "setting": "[3]; over 2 weeks", "result": "remained constant"}, {"measurement": "cell spreading and attachment to the cell culture substrate", "setting": "[4]", "result": "able to clearly spread and attach to the cell culture substrate"}, {"measurement": "cell index", "setting": "[5]; 50 µg/mL in medium", "result": "increase the cell index"}, {"measurement": "toxic effect on the cells", "setting": "[5]; 50 µg/mL in medium", "result": "does not have a toxic effect"}, {"measurement": "toxic effect on the cells", "setting": "[5]; 100µg/mL in medium", "result": "has a toxic effect"}]}
{"compound": "CCCCCC[C@@H](O)C/C=C\\CCCCCCCC(=O)O", "note": "[Rici, 12-hydroxy-9-cis-octadecenoic acid]", "values": [{"measurement": "cell morphology / confluence", "setting": "[1]; [6]", "result": "greater confluence"}, {"measurement": "cell morphology / confluence", "setting": "[1]; [7]", "result": "very high confluence in the well and elongated, typical growth"}, {"measurement": "cell morphology / confluence", "setting": "[1]; 3 weeks after addition, both concentrations", "result": "confluent, very dense monolayer and an elongated cell shape"}, {"measurement": "cell adherence and proliferation (summary)", "setting": "[1]", "result": "very beneficial"}, {"measurement": "VEGF release", "setting": "[2]; 2. Concentration (2.c), after 3 weeks", "result": "lower VEGF release"}, {"measurement": "cell count", "setting": "[3]; after 1 week, compared to untreated cells", "result": "difference was visible"}, {"measurement": "cell count", "setting": "[3]; [9]", "result": "significant increase in cell count"}, {"measurement": "influence on the cell count (summary)", "setting": "[3]", "result": "positive influence on the cell count"}, {"measurement": "cell index", "setting": "[5]; 100µg/mL, after 24 h and 48 h addition", "result": "remained constant"}, {"measurement": "cell index", "setting": "[5]; [10]", "result": "positive influence on the cell index"}, {"measurement": "toxic effect on the cells", "setting": "[5]; [10]", "result": "does not appear to have a toxic effect"}, {"measurement": "cell index", "setting": "[5]; 250 µg/mL, after 48h of repeated addition", "result": "decreases"}]}
